Data from paper PMC12131314, “Design, synthesis and cytotoxic research of a novel antitumor model based on acrylamide–PABA analogs via β-tubulin inhibition” (RSC Advances, 2025).

Columns and labels:
Format in all cases: cell-based
[1] = tested on: HepG2 hepatocellular carcinoma cell line; assay: MTT cytotoxicity assay, HepG2 hepatocellular carcinoma cell line; conditions: Homo sapiens, HepG2 cells, triplicate
Description: (§1) S4.2.1. Cytotoxic activity evaluation
(§2) To measure the cytotoxic actvity of the synthesized acrylamide-PABA derivatives 4a-j in breast MCF-7 (ATCC Cat. No. HTB-22), liver HepG2 (ATCC Cat No. HB-8065), and normal breast MCF-10A (ATCC Cat. No. CRL 10317) cell lines, cell viability assay was assessed using MTT assay method. Cells at density of 1 x 104 were seeded in a 96-well plate at 37 °C for 24 h under 5% CO2. After incubation, the cells were treated with different concentrations of the test acrylamide-PABA hybrids 4a-j and incubated for 24 h, then 20 µl of MTT solution at 5 mg/mL was applied and incubated for 4 h at 37 °C. Dimethyl sulphoxide (DMSO) in volume of 100 µl was added to each well to dissolve the purple formazan that had formed. The color intensity of the formazan product, which represents the growth condition of the cells, is quantified by using an ELISA plate reader (EXL 800, USA) at 570 nm absorbance. The experimental conditions were carried out with at least three replicates, and the experiments were repeated at least three times. […]

[2] = tested on: MCF-7 breast cancer cell line; assay: MTT cytotoxicity assay, MCF-7 breast cancer cell line; conditions: for IC50: MCF-7 breast carcinoma cells, triplicate
Description: The MTT colorimetric technique was used to evaluate the cytotoxic activity of the newly produced acrylamide–PABA hybrids 4a–j against the MCF-7 breast cancer cell line.
as §1, §2

β-tubulin = β-tubulin polymerization inhibition (β-tubulin assay kit) in MCF-7 cells
Description: as §1
To measure the cytotoxic actvity of the synthesized acrylamide-PABA derivatives 4a-j in breast MCF-7 (ATCC Cat. No. HTB-22), liver HepG2 (ATCC Cat No. HB-8065), and normal breast MCF-10A (ATCC Cat. No. CRL 10317) cell lines, cell viability assay was assessed using MTT assay method. Cells at density of 1 x 104 were seeded in a 96-well plate at 37 °C for 24 h under 5% CO2. After incubation, the cells were treated with different concentrations of the test acrylamide-PABA hybrids 4a-j and incubated for 24 h, then 20 µl of MTT solution at 5 mg/mL was applied and incubated for 4 h at 37 °C. Dimethyl sulphoxide (DMSO) in volume of 100 µl was added to each well to dissolve the purple formazan that had formed. The color intensity of the formazan product, which represents the growth condition of the cells, is quantified by using an ELISA plate reader (EXL 800, USA) at 570 nm absorbance. The experimental conditions were carried out with at least three replicates, and the experiments were repeated at least three times.
S4.2.2. β-tubulin inhibition Assay […]
according to manufacturer’s instructions

[3] = tested on: MCF-10A (normal breast) cell line; assay: MTT cytotoxicity assay, MCF-10A normal breast cell line; conditions: Homo sapiens, MCF-10A normal breast cells, triplicate
Description: as §1, §2

Bcl-2 = assay: qRT-PCR expression level of Bcl-2; conditions: MCF-7 cells
Excerpt: (§3) The apoptotic markers related to apoptosis were crucial in preventing cancer.[30] p53 and other apoptotic regulators function as transcription factors that can activate several target genes in response to oncogenic stress, causing cell cycle arrest, apoptosis activation, and degeneration, while also promoting DNA repairs.[31] As a result, the apoptosis-related markers work together in order to ensure that cells with mutations that promote cancer (including broken genomes) are either repaired or permanently eliminated.[32] To further comprehend the molecular process involved in the apoptotic efficacy of the acrylamide–PABA analogs, the expression levels of p53, Bax, Bcl-2 and caspase 9 were evaluated. […] This was carried out in contrast to a negative control group. […] This was accompanied by a notable drop in the level of Bcl-2 (0.29-fold). […]
(§4) S4.2.4. qRT-PCR measurements of p53, Bax, Bcl2 and caspase 9 for compound […]
(§5) Real-time PCR for p53, BAX, Bcl-2 and caspase 9 genes expression was done using commercial Qiagen RNA extraction/ BioRad SYBER green PCR master mix according manufacturer's instructions. […]
(§6) Relative quantification of target genes was run on Rotor-Gene 6000 Series Software

MCF-7 cells [4] = assay: Annexin V-FITC/PI apoptosis assay by flow cytometry; conditions: 4j at the IC50, 48 h
Description: Understanding the biological mechanism of action of chemotherapeutic agents is an important aspect of the pharmaceutical development process.[28] […] Following cellular staining with Annexin V –FITC/propidium iodide (PI), FACS analysis was conducted. To differentiate between early and late apoptosis, both stains were used. (PI^−/Annexin V-FITC^+) represented early apoptotic cells, (PI^+/Annexin V-FITC^+) indicated late apoptotic cells, and (PI^+/Annexin V-FITC^−) represented necrotic cells. However, healthy cells were not stained (PI^−/Annexin V-FITC^−). […] This was clarified by compound 4j's modest degree of induced necrosis in contrast to its markedly elevated levels of induced early and late apoptosis. Acrylamide–PABA analog 4j induced both early apoptosis (22.07%) and late apoptosis (7.56%) in comparison with modest level of necrosis (3.19%).
S4.2.3. Apoptosis assay for compound 4j
Apoptosis in MCF-7 cells was investigated using fluorescent Annexin V-FITC/ PI detection kit (BioVision Annexin V-FITC Apoptosis Detection Kit, Catalog #: K101) by flow cytometry assay. MCF-7 cells at a density of 2 × 10^5 per well were treated with compound 4j at the IC50 (µM) for 48 h, then the cells were harvested and stained with Annexin V-FITC/ PI dye for 15 min in the dark at 37 °C. The samples were immediately analyzed using FACS Calibur flow cytometer (Becton and Dickinson, […]
as §4
Real-time PCR for p53, BAX, Bcl-2 and caspase 9 genes expression was done using commercial Qiagen RNA extraction/ BioRad SYBER green PCR master mix according manufacturer's instructions. Briefly, 2 µl of cDNA template, 10 pMol of each forward and reverse primer, 10 µl of 2X Master Mix and to 20 µl total reaction mixture volume by nuclease free water and then was introduced to thermal cycler […]
(1 picture or pasted object on this page, not shown here)

Bax = assay: qRT-PCR expression level of Bax; conditions: MCF-7 cells
Excerpt: as §3, §4, §5, §6

MCF-7 cells [5] = assay: Cell cycle analysis (PI, flow cytometry); conditions: 4j at the IC50, 48 h
Excerpt: In cancer mass development, the disruption of the cell cycle can be an important event. Cellular cycle progression has two primary checkpoints: G1/S before DNA replication and G2/M before mitosis.[33] A p53-responsive gene such as p21^wafi regulates the G1/S checkpoint and mediates cell cycle arrest.[34] Since the cytotoxic activity of the synthesized analogs against MCF-7 cells was induced by the enhanced apoptotic levels, we examined whether these analogs further induced cell cycle arrest. […] As can been seen in Fig. 5, the cellular distribution at each stage is depicted in the histogram of the cellular cycle caused by the acrylamide–PABA hybrid 4j. […]
instrument (Thermo Scientific, USA). The cycling parameters for the PCR amplification were achieved by initial denaturation at 95 °C for 3 minutes followed by 40 cycles of 94 °C for 15 seconds and annealing/extension step at 60 °C for 1 min.
Relative quantification of target genes was run on Rotor-Gene 6000 Series Software […]
Table 1: The primer sequences for Real Time PCR assay
S4.2.5. Cell cycle analysis of compound 4j
Cell cycle analysis in MCF-7 cells was investigated using fluorescent Annexin V-FITC/ PI detection kit (BioVision EZCellTM Cell Cycle Analysis Kit Catalog #K920) by flow cytometry assay. MCF-7 cells at a density of 2 × 10^5 per well were harvested and washed twice in PBS. After that, the cells were incubated at 37 °C and 5% CO2.
The medium was incubated with the tested compound 4j at the IC50 (µM) for 48 h, washed twice in PBS, fixed with 70% ethanol, rinsed again with PBS. Afterward, medium was stained with DNA fluorochrome PI for 15 min at 37 °C. The samples were immediately analyzed using Facs Calibur flow cytometer (Becton and Dickinson, Heidelberg, Germany).
S4.3. Molecular modeling study
Molecular docking simulations were conducted using AutoDock Vina to investigate ligand interactions with the tubulin complex. The three-dimensional (3D) structure of the tubulin heterodimer was obtained from the Protein Data Bank (PDB ID: 1SA0), with chain B of the colchicine-bound complex selected as the docking target. […]

p53 = assay: qRT-PCR expression level of p53; conditions: MCF-7 cells
Excerpt: as §3, §4, §5, §6

caspase 9 = assay: qRT-PCR expression level of caspase 9; conditions: MCF-7 cells
Excerpt: as §3, §4, §5, §6

COc1cc(C(=O)N/C(=C\c2ccc(F)cc2)C(=O)NNC(=O)c2ccc(N)cc2)cc(OC)c1OC [4a, (Z)-N-(3-(2-(4-Aminobenzoyl)hydrazineyl)-1-(4-fluorophenyl)-3-oxoprop-1-en-2-yl)-3,4,5-trimethoxybenzamide]
IC50 [1]: 4.87 ± 0.13 µM
IC50 ([2]; Homo sapiens, MCF7, MTT): 2.99 ± 0.1 µM
percentage inhibition of β-tubulin polymerization (β-tubulin): 78.19%
IC50 [3]: 19.8 ± 0.62 µM

COc1cc(C(=O)N/C(=C\c2ccc(Cl)cc2)C(=O)NNC(=O)c2ccc(N)cc2)cc(OC)c1OC [4b, (Z)-N-(3-(2-(4-Aminobenzoyl)hydrazineyl)-1-(4-chlorophenyl)-3-oxoprop-1-en-2-yl)-3,4,5-trimethoxybenzamide]
IC50 ([2]; Homo sapiens, MCF7, MTT): 25.3 ± 0.86 µM

COc1cc(C(=O)N/C(=C\c2ccc([N+](=O)[O-])cc2)C(=O)NNC(=O)c2ccc(N)cc2)cc(OC)c1OC [4c, (Z)-N-(3-(2-(4-Aminobenzoyl)hydrazineyl)-1-(4-nitrophenyl)-3-oxoprop-1-en-2-yl)-3,4,5-trimethoxybenzamide]
IC50 ([2]; Homo sapiens, MCF7, MTT): > 30 µM
IC50 ([2]; MTT): 39.7 ± 1.34 µM

COc1cc(C(=O)N/C(=C\c2ccc(N(C)C)cc2)C(=O)NNC(=O)c2ccc(N)cc2)cc(OC)c1OC [4f, (Z)-N-(3-(2-(4-Aminobenzoyl)hydrazineyl)-1-(4-(dimethylamino)phenyl)-3-oxoprop-1-en-2-yl)-3,4,5-trimethoxybenzamide]
IC50 ([2]; Homo sapiens, MCF7, MTT): 27.2 ± 0.92 µM

COc1ccc(/C=C(\NC(=O)c2cc(OC)c(OC)c(OC)c2)C(=O)NNC(=O)c2ccc(N)cc2)cc1OC [4g, (Z)-N-(3-(2-(4-Aminobenzoyl)hydrazineyl)-1-(3,4-dimethoxyphenyl)-3-oxoprop-1-en-2-yl)-3,4,5-trimethoxybenzamide]
IC50 ([2]; Homo sapiens, MCF7, MTT): 17.1 ± 0.58 µM

COc1cc(C(=O)N/C(=C\c2cc(Br)c(O)c(Br)c2)C(=O)NNC(=O)c2ccc(N)cc2)cc(OC)c1OC [4h, (Z)-N-(3-(2-(4-Aminobenzoyl)hydrazineyl)-1-(3,5-dibromo-4-hydroxyphenyl)3-oxoprop-1-en-2-yl)-3,4,5-trimethoxybenzamide]
IC50 ([2]; Homo sapiens, MCF7, MTT): 19.9 ± 0.67 µM

COc1cc(/C=C(\NC(=O)c2cc(OC)c(OC)c(OC)c2)C(=O)NNC(=O)c2ccc(N)cc2)cc(OC)c1OC [4i, (Z)-N-(3-(2-(4-Aminobenzoyl)hydrazineyl)-3-oxo-1-(3,4,5-trimethoxyphenyl)prop-1-en-2-yl)-3,4,5-trimethoxybenzamide]
IC50 ([2]; Homo sapiens, MCF7, MTT): 4.51 ± 0.15 µM

COc1cc(C(=O)N/C(=C\c2ccco2)C(=O)NNC(=O)c2ccc(N)cc2)cc(OC)c1OC [4j, (Z)-N-(3-(2-(4-Aminobenzoyl)hydrazineyl)-1-(furan-2-yl)-3-oxoprop-1-en-2-yl)-3,4,5-trimethoxybenzamide]
level of Bcl-2 compared to negative controls (Bcl-2): 0.29 fold
IC50 [1]: 2.14 ± 0.09 µM
IC50 ([2]; Homo sapiens, MCF7, MTT): 1.83 ± 0.06 µM
fold more potent than the reference drug Col (MCF-7 IC50) ([2]; MCF-7 cells, relative to Col): 1.9 fold
early apoptosis (MCF-7 cells [4]): 22.07%
late apoptosis (MCF-7 cells [4]): 7.56%
necrosis (MCF-7 cells [4]): 3.19%
expression level of Bax compared to negative controls (Bax): 8.36 fold
percentage inhibition of β-tubulin polymerization (β-tubulin): 81.51%
cell population at S phase (MCF-7 cells [5]; negative control 29.51%): 18.83%
cell population at G1 phase (MCF-7 cells [5]; negative control 61.08%): 46.99%
cell population at G2/M phase (MCF-7 cells [5]; untreated control 9.41%): 34.18%
expression level of p53 compared to negative controls (p53): 5.14 fold
expression level of caspase 9 compared to negative controls (caspase 9): 9.89 fold
IC50 [3]: 23.2 ± 1.06 µM
